From US5780642A, “Imidazole derivatives as therapeutic agents” (KNOLL Aktiengesellschaft, priority 1993, dated 1998)
Where a name gives a salt, the structure may show the parent alone. Read-outs that look alike come from different tables or passages of the source.

How the values were obtained:
[1] = system: Carrageenan-induced pleurisy (migrating leukocytes); assay: Carrageenan-induced pleurisy in rats; assay type: in vivo; conditions: rat, p.o. at time of challenge and 24h and 48h thereafter
Procedure: The most advantageous compounds of formula I were active in Tests A and B and also in the following test. Carrageenan-induced pleurisy in rats was carried out as described by Ackerman et al. J. Pharmacol. Exp. Therap. 1980, 215, 588-595. Migrating leukocytes were harvested by lavage of the thoracic cavity 72h after injection of 0.3 ml 1% λcarrageenan in sterile isotonic saline. Test compounds were administered p.o. at the time of challenge and 24h and 48 h thereafter.

[2] = system: Zymosan Stimulated Macrophages (arachidonic acid release); assay: Test A: Inhibition of Arachidonic Acid Release from Zymosan Stimulated Macrophages; assay type: cell-based, mouse (female MF1 mice); conditions: Mus musculus, Macrophage, read-out: Test A IC50
Procedure: Test A was carried out in the following way:
Inhibition of Arachidonic Acid Release from Zymosan Stimulated Macrophages
Female MF1 mice (weighing 20 to 25 g) were killed using a rising concentration of CO2. The mice were laid on their backs and the abdomens wiped with 70% alcohol. The skin was pulled back, exposing the peritoneal wall. Medium A (5 ml) (see below) was injected into the peritoneal cavity of each mouse followed by approximately 1 ml of air using a 20 ml syringe and a 21G×40 mm needle in order to form a suspension of macrophage cells. The medium and cells were then removed using a 19G×40 mm needle. The resulting suspension was returned to a sterile beaker kept on ice. The extracts from all the mice were pooled and this pooled cell suspension was counted using a Coulter counter and adjusted to a final cell count of 1-1.3×10^6 cells/ml prior to labelling with [^3 H]-arachidonic acid. Typically five mice provided sufficient cells for each multiwell plate.
Sufficient [^3 H]-arachidonic acid in ethanol to give a final concentration of 1.6 μCi/ml (equivalent to 40 μCi/plate) was blown to dryness under nitrogen. The arachidonic acid was then resuspended in 1 or 2 ml of the cell suspension which was then mixed with the remainder of the cell suspension in a centrifuge bottle. The labelled cell suspension was then plated out into sterile plastic 96 flat-bottomed well plates (250 μl per well) and incubated overnight at 37° C. in a moist atmosphere of 5% CO2, 95% air.
The following day, non-adherent cells were removed by washing 3 times with sterile phosphate buffered saline (PBS). The adherent peritoneal macrophages were then cultured for a further 24 hours in the presence or absence of drugs, in medium B (see below) at 37° in a 5% CO2 atmosphere in order to measure the effects of drugs on the spontaneous release of arachidonic acid in the absence of stimulus. After this incubation, supernatants were removed to give media 1 and stored in sealed multi-well plates at 4° C. prior to scintillation counting. Drugs which potentiated spontaneous release of arachidonic acid (125% of controls) were deemed to be toxic at the concentration at which this phenomenon occurred. The supernatants were replaced by fresh medium C containing fresh drug and a stimulus. Three drugs were tested at six concentrations (100, 50, 20, 10, 5 and 1 μM) in replicates of four on each plate. The other wells contained controls consisting of a positive control (e.g. dexamethasone), medium (B) only and medium C only.
Incubation was then continued for a further 5 hours, whereupon the supernatants were collected to give media 2 and the adherent cells washed with PBS. The cells were then lysed with 100 μl of 0.1% TRITON® X100 in a 0.1% solution of bovine serum albumin in 0.9% saline and mechanically disrupted to give cell lysates. These supernatants (media 2) and cell lysates (Cells) were also stored in sealed multi-well plates at 4° C. prior to scintillation counting. 200 μl aliquots of media, or 100 μl aliquots of cells were counted using 2 ml of OPTIPHASE "HIGH SAFE" (Trademark of LKB) as scintillant.
The percentage of arachidonic acid released was calculated using the mean values for each group of 4 wells in the following equation. [formula]
The value for the arachidonic acid release in the absence of stimulus (spontaneous, cpm of media 2) from cells which had been exposed to neither stimulus nor drug was subtracted from all equivalent values (cpm media 2, stimulated with or without drug) to give the net stimulated release. The percentage inhibition of arachidonic acid release caused by a drug may then be calculated using the following equation. [formula]
Compounds of formula I were tested at six concentrations (100, 50, 20, 10, 5 and 1 μM) and IC50 values calculated. Compounds with IC50 values≤100 μM are considered to be active. Advantageous compounds have an IC50 value<50 μM.
Medium A (for peritoneal lavage) […]

[3] = system: Carrageenan-induced rat paw oedema; assay: Test B: Carrageenan-induced rat paw oedema test; assay type: in vivo; conditions: 100 mg/kg oral; active = 20% or greater inhibition of paw oedema in at least two out of three tests
Procedure: Test B was carried out in the following way: Carrageenan-induced rat paw oedema test Female rats, weight range 125-150 g were fasted overnight. One of the hind legs of each animal was marked with a line at the connection between the cuboid/navicular and calcaneus/talus bones. Groups of six rats were orally dosed at 10 ml/kg, in random order, with a given dose of the test compound given as a solution or suspension in 10% (w/v) aqueous acacia solution. One hour after dosing, 0.1 ml of 1% (w/v) sterile carrageenan λ in normal saline was injected deeply into the plantar surface of the marked hind foot of each rat. The volume of the foot (up to the marked line) was measured immediately after injection using duplicate water displacement readings. Three hours after injection the foot volume was measured again and the percentage increase in foot volume relative to the initial reading was calculated. The increase in foot volume (i.e. the degree of oedema) in drug treated animals when compared with that in the drug untreated control gave the degree of inhibition of paw oedema by the drug. Compounds were considered to be active in this test if they produced a 20% or greater inhibition of paw oedema in at least two out of three tests after oral dosing at 100 mg/kg. Statistical significance was assessed using the Student's t test for single dose studies and Dunnett's test for multiple dose studies. More advantageous compounds were active in both Tests A and B.

[4] = inhibition of arachidonic acid release, zymosan stimulated mouse peritoneal macrophages, tested at 100, 50, 20, 10, 5 and 1 μM, ≤100 μM considered active

IC50 [2, 4] [µM]	SMILES	activity in carrageenan-induced pleurisy at 10 mg/kg [1]	activity in Test B (inhibition of paw oedema) [3]	activity in carrageenan-induced pleurisy at 3 mg/kg or lower [1]	IC50 [2] [µM]
20	CC(C)(CNCCCn1ccnc1)Oc1ccc(Cl)cc1 [Example 1, 2-(4-chlorophenoxy)-3'-(imidazol-1-yl)-2-methyldipropylamine]	active	–	–	–
26	Cl.Cl.Clc1ccc(OCCNCCCn2ccnc2)cc1 [Example 2, N-[2-(4-chlorophenoxy)ethyl]-3-(imidazol-1-yl)propylamine dihydrochloride]	active	active	–	–
30	c1ccc(OCCNCCCn2ccnc2)cc1 [Example 3, 3-(Imidazol-1-yl)-N-(2-phenoxyethyl)propylamine]	–	active	–	–
29	CC(C)(CNCCCn1ccnc1)Oc1ccccc1Cl [Example 4, 2-(2-Chlorophenoxy)-3'-(imidazol-1-yl)-2-methyldipropylamine]	–	active	–	–
39	Cl.Cl.Fc1ccc(OCCNCCCn2ccnc2)cc1 [Example 7, N-[2-(4-Fluorophenoxy)ethyl]-3-(imidazol-1-yl)propylamine dihydrochloride]	–	active	–	–
27	CC(CNCCCn1ccnc1)Oc1ccc(Cl)cc1 (stereo not drawn) [Example 15, 2-(4-chlorophenoxy)-3'-(imidazol-1-yl)dipropylamine dihydrochloride]	active	active	–	–
15	CCCCCCNC(=O)Cc1ccc(C(C)(C)NCCCn2ccnc2)cc1 [Example 29, N-Hexyl-4-{1-[3-(imidazol-1-yl)propylamino]-1-methylethyl}phenylacetamide]	active	–	–	–
92	CC(C)(NCC(O)Cn1ccnc1)c1ccc(Cl)cc1 (stereo not drawn) [Example 43, 1-[1-(4-chlorophenyl)-1-methylethylamino]-3-(imidazol-1-yl)propan-2-ol]	–	–	active	–
–	CC(C)(NCCCn1ccnc1)c1ccc(CCNS(=O)(=O)c2ccccc2)cc1 [Example 56, N-[2-(4-{1-[3-(imidazol-1-yl)propylamino]-1-methylethyl}phenyl)ethyl]-benzenesulphonamide]	active	–	–	8
17	CCC(CC)(NCCCn1cnc(CCNC(=O)c2ccccc2)c1)c1ccccc1 [Example 60, N-(2-{1-[3-(1-ethyl-1-phenylpropylamino)propyl]imidazol-4-yl}ethyl)benzamide]	–	–	active	–
32	CN(CCCn1ccnc1)CCOc1ccc(Cl)cc1 [Example 64, N-[2-(4-chlorophenoxy)ethyl]-3-(imidazol-1-yl)-N-methylpropylamine]	active	active	–	–
47	CC(C)(NCCc1c[nH]cn1)c1ccc(Cl)cc1 [Example 85, 1-(4-chlorophenyl)-2'-(imidazol-4(5)-yl)-1-methyldiethylamine]	active	–	–	–
3	CC(C)(NCCCc1nccn1Cc1ccccc1)c1ccc(Cl)cc1 [Example 86, 3-(1-benzylimidazol-2-yl)-N-[1-(4-chlorophenyl)-1-methylethyl]propylamine]	–	–	–	–
28	Cl.Cl.Clc1ccc2c(c1)CCC2NCCCn1ccnc1 (stereo not drawn) [Example 88, N-(5-chloroindan-1-yl)-3-(imidazol-1-yl)propylamine dihydrochloride]	active	active	–	–
100	COc1ccc(OCC(C)(C)NCCCn2ccnc2)cc1 [Example 108, N-[2-(4-methoxyphenoxy)-1,1-dimethylethyl]-3-(imidazol-1-yl)propylamine dihydrochloride hydrate]	–	–	–	–
33	CC(C)(COc1ccc(C2=NCCS2)cc1)NCCCn1ccnc1 [Example 109, N-[1,1-dimethyl-2-[4-(4,5-dihydrothiazol-2-yl)phenoxy]ethyl}-3-(imidazol-1-yl)propylamine dimaleate]	–	–	–	–
